What was measured:
[1] = Lethal dose against rodents; Range = 1200-10e4 nmol/kg; assay type: toxicity; details: rodentia
[2] = biological target: T1, Neuronal acetylcholine receptor; alpha3/beta4 (Rattus norvegicus, UniProt P04757+P12392); test: Effective concentration against alpha3-beta4 nicotinic acetylcholine receptor (nAChR) expressed in IMR32 cell; assay type: cell-based, IMR-32
[3] = biological target: Neuronal acetylcholine receptor; alpha4/beta2 (Rattus norvegicus, UniProt P09483+P12390); test: Displacement of [3H]-cytisine from Alpha4-beta2 Nicotinic acetylcholine receptor of rat brain homogenates; assay type: tissue-based
[4] = biological target: T1, Neuronal acetylcholine receptor; alpha3/beta4; test: Displacement of [3H]epibatidine from Alpha3 Beta4 Nicotinic acetylcholine receptor of rat brain homogenates
[5] = Lethal dose against rodents; Range = 1200-10e4; assay type: toxicity; details: rodentia
[6] = Lethal dose against rodents; assay type: toxicity; details: rodentia
[7] = biological target: T1, Neuronal acetylcholine receptor; alpha3/beta4; test: Effective concentration against alpha3-beta4 nicotinic acetylcholine receptor (nAChR) expressed in Xenopus oocytes; assay type: cell-based, Oocyte
[8] = Lethal dose against rodents; Range = 12-120 nmol/kg; assay type: toxicity; details: rodentia, in vivo
[9] = Lethal dose against rodents; Range = 7-67 nmol/kg; assay type: toxicity; details: rodentia, in vivo
[10] = Lethal dose against rodents; Range = 1.37e5 nmol/kg; assay type: toxicity; details: rodentia
[11] = biological target: T1, Neuronal acetylcholine receptor; alpha3/beta4; test: Effective concentration against alpha3-beta4 Nicotinic acetylcholine receptor (nAChR); assay type: protein-complex assay
[12] = Lethal dose against rodents; Range = 1.38e7 nmol/kg; assay type: toxicity; details: rodentia

T1 sequence (P04757 whole entry): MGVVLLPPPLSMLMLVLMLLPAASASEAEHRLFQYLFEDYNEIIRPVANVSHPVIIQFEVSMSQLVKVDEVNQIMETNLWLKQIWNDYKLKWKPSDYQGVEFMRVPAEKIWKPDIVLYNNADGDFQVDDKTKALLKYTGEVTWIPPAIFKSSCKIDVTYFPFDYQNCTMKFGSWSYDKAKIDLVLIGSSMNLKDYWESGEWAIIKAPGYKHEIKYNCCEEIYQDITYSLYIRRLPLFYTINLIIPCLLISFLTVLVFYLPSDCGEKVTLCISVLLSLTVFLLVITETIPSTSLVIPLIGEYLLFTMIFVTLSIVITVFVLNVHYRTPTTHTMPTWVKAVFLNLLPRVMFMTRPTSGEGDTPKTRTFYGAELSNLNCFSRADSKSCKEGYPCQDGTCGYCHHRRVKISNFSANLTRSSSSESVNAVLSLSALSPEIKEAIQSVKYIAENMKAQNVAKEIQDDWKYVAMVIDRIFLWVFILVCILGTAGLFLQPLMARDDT
T1 sequence (P12392 whole entry): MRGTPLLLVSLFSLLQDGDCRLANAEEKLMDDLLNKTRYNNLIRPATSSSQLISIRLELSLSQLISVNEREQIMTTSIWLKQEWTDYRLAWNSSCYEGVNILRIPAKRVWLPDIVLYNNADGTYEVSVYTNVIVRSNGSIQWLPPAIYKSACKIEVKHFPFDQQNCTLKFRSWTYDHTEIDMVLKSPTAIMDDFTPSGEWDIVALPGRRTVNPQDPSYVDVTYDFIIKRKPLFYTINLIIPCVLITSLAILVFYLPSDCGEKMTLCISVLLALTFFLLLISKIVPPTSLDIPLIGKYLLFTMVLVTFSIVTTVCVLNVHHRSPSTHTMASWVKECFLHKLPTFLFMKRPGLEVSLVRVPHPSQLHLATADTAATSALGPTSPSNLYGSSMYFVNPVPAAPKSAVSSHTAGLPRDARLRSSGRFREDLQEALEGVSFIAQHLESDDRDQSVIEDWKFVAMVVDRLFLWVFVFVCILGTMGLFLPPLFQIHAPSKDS
Chain of Neuronal acetylcholine receptor; alpha4/beta2 (P09483 whole entry): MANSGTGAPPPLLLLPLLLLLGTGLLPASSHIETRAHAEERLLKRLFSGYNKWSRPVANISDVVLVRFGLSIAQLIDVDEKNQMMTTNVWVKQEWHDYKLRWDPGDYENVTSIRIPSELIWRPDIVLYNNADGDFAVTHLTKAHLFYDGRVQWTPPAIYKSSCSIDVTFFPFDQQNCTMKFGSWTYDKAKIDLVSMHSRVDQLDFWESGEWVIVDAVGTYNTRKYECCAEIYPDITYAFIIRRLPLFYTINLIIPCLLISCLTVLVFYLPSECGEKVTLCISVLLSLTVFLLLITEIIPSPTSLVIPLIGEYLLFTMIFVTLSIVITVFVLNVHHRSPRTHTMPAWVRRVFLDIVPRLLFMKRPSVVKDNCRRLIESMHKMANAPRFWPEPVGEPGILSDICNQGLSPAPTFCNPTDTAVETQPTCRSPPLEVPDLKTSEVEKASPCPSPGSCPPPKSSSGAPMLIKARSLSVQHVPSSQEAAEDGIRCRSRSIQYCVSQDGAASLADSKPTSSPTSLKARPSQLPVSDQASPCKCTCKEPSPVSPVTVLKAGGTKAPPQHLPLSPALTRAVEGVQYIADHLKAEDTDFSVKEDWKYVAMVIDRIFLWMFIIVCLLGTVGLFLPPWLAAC
Chain of Neuronal acetylcholine receptor; alpha4/beta2 (P12390 whole entry): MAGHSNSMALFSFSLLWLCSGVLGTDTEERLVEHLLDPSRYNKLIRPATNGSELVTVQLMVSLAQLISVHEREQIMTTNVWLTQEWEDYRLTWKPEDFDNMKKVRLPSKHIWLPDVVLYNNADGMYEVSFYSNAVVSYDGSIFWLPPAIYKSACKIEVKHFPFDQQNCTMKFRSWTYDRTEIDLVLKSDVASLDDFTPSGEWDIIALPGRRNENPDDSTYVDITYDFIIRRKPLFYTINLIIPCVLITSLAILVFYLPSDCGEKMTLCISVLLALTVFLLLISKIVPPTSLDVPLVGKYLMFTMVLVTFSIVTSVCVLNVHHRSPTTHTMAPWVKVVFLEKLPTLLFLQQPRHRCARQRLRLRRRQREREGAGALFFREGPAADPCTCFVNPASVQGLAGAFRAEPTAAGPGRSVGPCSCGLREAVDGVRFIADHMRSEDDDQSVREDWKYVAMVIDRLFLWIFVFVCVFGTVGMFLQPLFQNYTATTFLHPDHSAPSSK

Structure (SMILES): CN1CCCC1COc1cccnc1 (configuration not stated)
- LD50 [1]: 100 µmol/kg
- EC50 [2]: 63000 nM
- Ki [3]: 0.15 nM

Structure (SMILES): c1cncc(OCC2CCN2)c1 (configuration not stated)
- Ki [3]: 0.05 nM
- Ki [4]: 73.6 nM
- LD50 [5]: 100 µmol/kg

Structure (SMILES): CN1CCCC1COc1ccc(Cl)nn1 (configuration not stated)
- Ki [3]: 29 nM

Structure (SMILES): CN1CCCC1COc1cnccn1 (configuration not stated)
- Ki [3]: 16.3 nM

Structure (SMILES): CN1CCCC1COc1ccccn1 (configuration not stated)
- Ki [3]: 495 nM

Structure (SMILES): CN1C2C=C(c3cccnc3)CC1CC2 (configuration not stated)
- LD50 [6]: 0.25 µmol/kg

Structure (SMILES): c1cncc(C2CC3CCC2N3)c1 (single isomer, unassigned; (+)) [DESCHLOROEPIBATIDINE]
- EC50 [7]: 510 nM
- Ki [3]: 0.064 nM
- LD50 ([8]; read-out: LD50): 0.12 µmol/kg

Structure (SMILES): c1cncc(C2CC3CCC2N3)c1 (single isomer, unassigned; (-)) [DESCHLOROEPIBATIDINE]
- EC50 [7]: 250 nM
- Ki [3]: 0.015 nM
- LD50 [8]: 0.12 µmol/kg

Structure (SMILES): Clc1ccc([C@@H]2C[C@H]3CC[C@@H]2N3)cn1 [(+)-EPIBATIDINE]
- LD50 [9]: 0.067 µmol/kg

Structure (SMILES): Cc1cc([C@@H]2CCCN2C)on1 [ABT-418]
- LD50 [10]: 137 µmol/kg
- Ki [3]: 4 nM
- EC50 [11]: 209000 nM

Structure (SMILES): CC(=O)OCC[N+](C)(C)C [ACETYLCHOLINE]
- LD50 [12]: 13800 µmol/kg

Structure (SMILES): Clc1ccc(C2CC3CCC2N3)cn1 (configuration not stated) [EPIBATIDINE]
- LD50 [9]: 0.067 µmol/kg

Reference: ChEMBL document CHEMBL1141139 (J Med Chem, 2005)
